# According to US20100305201A1 (The Trustees of the University of Pennsylvania, priority 2006, published 2010):
# Key:
# [1] = test system: Human lung-derived carcinoma cells A549; assay: Cytotoxicity assay (MTT); type: cell-based; details: 72 h, sigmoid dose-response fit
# Procedure: Cytotoxicity Assay. TAX-loaded and drug-free micelles at serial dilutions were prepared as above. For comparison, 12 mg/ml TAX in ethanol was mixed with an equal volume of Cremophor® EL followed by sonication for 30 min. The resulting Cremophor EL TAX was diluted with DPBS to obtain desired TAX concentrations. Human lung-derived carcinoma cells A549 were grown in F12 Ham media supplemented with 10% fetal bovine serum and 100 U/ml penicillin and 100 μg/ml streptomycin at 37° C., 5% CO2 to 60-70% confluence. A549 cells (50,000 cell/ml) were seeded in 96-well plates at 5,000 cells per well and cultured for 24 h to allow attachment. […] As control, […] of DPBS was added to cells not exposed to those formulations. After 37° C., 5% CO2 incubation for 72 h, the media were discarded, and 100 μl/well F12 Ham medium and 11 μl/well of 5 mg/ml MTT solution in DPBS was added. The plates were incubated at 37° C. for 3 h and the media were removed again. The intracellular metabolized product MTT formazan was retrieved by addition of 100 μl/well DMSO and incubation at room temperature for 5 min. The plates were read at 550 nm, and the cell viability was calculated as (reading of wells with cells exposed to tested formulations minus the reading of the blank wells) divided by (reading of wells with cells exposed to DPBS minus the reading of the blank wells).
# Data Analysis. […]
# [2] = test system: lung carcinoma A549 tumors; assay: Tumor shrinkage study, multiple injections; type: in vivo, mice
# Procedure: Tumor shrinkage studies. Human lung carcinoma cell line, A549, was injected subcutaneously at […] per mouse. […] The same injections were repeated after 3, 7, 10, 14, 17 and 21 days. Tumor area (A) was monitored 24 hrs after each injection by measuring two orthogonal dimensions as A=[(L1×L2)/2] for each treatment group. The body weight of the mice was also monitored throughout the experiment.
# The tumor shrinkage effect of different carriers was also examined in a multiple-injection experiment. […] TAX in DPBS solution was also used for comparison, with the MTD of 1 mg/kg injected. […] It should be noted here that the weight gaining due to tumor growth (if possible) for all groups was minimal, wherein the largest tumor area gained after 3 weeks was 0.4 cm^2 (FIG. 6A), corresponding to an approximate volume of 0.2 cm^3 (assuming the tumor was spherical in shape). This would have contributed to only 0.2 g of the total weight (assuming the density of tumor is 1 g/ml).
# To evaluate the tumor inhibition effect of the different TAX delivery methods in a more quantitative way, the TAX-inhibited tumor growth vs. time plot was fit by applying an exponential model (Simeoni et al., Cancer Res. 64:1094-101 (2004)), incorporating both a tumor growth phase and a tumor shrinkage phase with the TAX addition. The modeling was performed by fit the parameters in the equation (Table 4):
# Tumor Area=Σ Ae^t/growth+Be^−t/shrink Equation 7
# where t is the time (day), A and tgrowth are constants of the tumor growth phase, and B and tshrink are constants of the TAX-inhibition phase.
# in vivo = details: Nrc nude, mouse
# Procedure: (§1) Nrc nude mice were weighed followed by a single tail vein injection of either empty OCL3 micelles and TAX-loaded micelles in different concentrations at 0.2 ml per mouse. After 24 hours, the mice were weighed again. The “maximum tolerated dose” (MTD) was determined to be, and defined as, the dose that caused the mouse body weight loss<10%.
# [3] = Maximum tolerated dose (MTD) determination; details: nude mice, dose that causes 10% weight loss within 24 h (Example 3)
# Procedure: as §1
# A549 tumor xenografts = assay: Tumor study with single tail-vein injection (Example 3); details: one week after single injection, 1 mg kg^−1 in ethanol (MTD)
# Procedure: Briefly, cultured cells were injected subcutaneously onto the backs of nude mice and allowed to grow until they reached a mean size of 0.52 cm^2 (±0.02 em^2). […] Each group consisted of four mice.
# [4] = exponential model of TAX-inhibited A549 tumor area vs time, injections at MTD
structure (smiles),measurement,setting,value
"CC(=O)O[C@H]1C(=O)[C@@]2(C)[C@H]([C@H](OC(=O)c3ccccc3)[C@]3(O)C[C@H](OC(=O)[C@H](O)[C@@H](NC(=O)c4ccccc4)c4ccccc4)C(C)=C1C3(C)C)[C@]1(OC(C)=O)CO[C@@H]1C[C@@H]2O [TAX, Paclitaxel]",IC50,[1],321 nM
same,tumor growth inhibition (in words),"[2]; A549-bearing mice, multiple injections at MTD, 22 days",modest inhibition of tumor growth
same,"A, constant of the tumor growth phase",[2]; [4],0.014 cm^2
same,"B, constant of the TAX-inhibition phase",[2]; [4],0.178 cm^2
same,"tgrowth, constant of the tumor growth phase",[2]; [4],1.2 week
same,"tshrink, constant of the TAX-inhibition phase",[2]; [4],8.8 week
same,MTD at 24 h,in vivo,1 mg/kg
same,maximum tolerated dose (MTD),[3],1 mg/kg
same,apoptosis in tumor (TUNEL-stained tumor sections),A549 tumor xenografts,little effect
